Source: US12448373B2, “Azetidinyl-acetamides as CXCR7 inhibitors” (CHEMOCENTRYX, INC., priority 2021, dated 2025)

The molecules below were run against T1, CXCR7 (Homo sapiens, UniProt P25106) (assay: CXCR7 β-arrestin recruitment assay in CHO-CXCR7 cells (ProLink/EA β-galactosidase complementation), induced by human SDF-1a). Conditions: assay buffer, SDF-1a at EC50 concentration.
T1 construct: expressed in transfected cells; host or cells: CHO cells (CHO-CXCR7), transgenes maintained with Hygromycin B and G418
T1 sequence (P25106 whole entry): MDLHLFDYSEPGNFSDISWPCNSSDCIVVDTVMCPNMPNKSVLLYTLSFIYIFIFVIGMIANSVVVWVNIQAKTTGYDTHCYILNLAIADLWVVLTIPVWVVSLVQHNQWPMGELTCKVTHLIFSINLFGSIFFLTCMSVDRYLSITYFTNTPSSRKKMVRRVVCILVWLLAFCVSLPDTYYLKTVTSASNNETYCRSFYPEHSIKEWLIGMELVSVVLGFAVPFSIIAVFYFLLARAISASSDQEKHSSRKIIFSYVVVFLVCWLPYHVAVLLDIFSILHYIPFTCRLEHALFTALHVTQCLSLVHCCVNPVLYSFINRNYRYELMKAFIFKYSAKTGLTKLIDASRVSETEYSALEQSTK
Type: cell-based
How it was run: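 SDF-1α-induced β-arrestin recruitment was measured by enzyme-fragment complementation (ProLink-CXCR7 with β-arrestin-EA) in stable CHO cells. Agonist was dosed at its EC50, determined the same day, alongside serially diluted compound for 1.5 h at 37 °C. Fluorogenic galactoside substrate (0.4 mM, 30 min) was read at 360/465 nm, with IC50 from 3-parameter nonlinear regression.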

| Structure (SMILES) | IC50 [nM] |
| --- | --- |
| Cc1cc(Cl)cc(C(C)(C)NC(=O)CC2(NC(=O)c3cc(-c4ccc(F)cc4F)on3)CN([C@H]3CC[C@@](C)(O)CC3)C2)c1 [Example 1.083] | < 5 |
| CC(C)CN1CC(CC(=O)NC(C)(C)c2cc(Cl)cc(Cl)c2)(NC(=O)c2cc(-c3ccc(F)cc3F)on2)C1 [Example 1.093] | 5 to 100 |
| CC(C)(NC(=O)CC1(NC(=O)c2csc(-c3ccc(F)cc3F)n2)CN([C@H]2CC[C@@](C)(O)CC2)C1)c1cccc(Cl)c1 [Example 1.050] | 1000 to 20000 |
| O=C(CC1(NC(=O)c2cc(-c3ccc(F)cc3F)on2)CN(C2CCCCC2)C1)NC1(c2ncccn2)CC1 [Example 1.332] | 5 to 100 |
| Cc1cc(Cl)cc(C(C)(C)NC(=O)CC2(NC(=O)c3cc(-c4ccc(F)cc4F)on3)CN([C@H]3CC[C@](C)(O)CC3)C2)c1 [Example 1.090] | < 5 |
| Cc1cc(C)nc(C(C)(C)NC(=O)CC2(NC(=O)c3nnc(-c4ccc(F)cc4F)s3)CN(CC(C)C)C2)n1 [Example 1.039] | 5 to 100 |
| CC(C)(NC(=O)CC1(NC(=O)c2cc(-c3ccc(F)cc3F)on2)CN([C@H]2CC[C@](C)(O)CC2)C1)c1cc(F)cc(Cl)c1 [Example 1.124] | < 5 |
| Cc1cc(C(F)(F)F)cc(C(C)(C)NC(=O)CC2(NC(=O)c3cc(-c4ccc(F)cc4F)on3)CN([C@H]3CC[C@](C)(O)CC3)C2)n1 [Example 1.343] | 5 to 100 |
| Cc1cccc(C(C)(C)NC(=O)CC2(NC(=O)c3cc(-c4ccc(F)cc4F)on3)CN([C@H]3CC[C@](C)(O)CC3)C2)n1 [Example 1.121] | < 5 |
| CC(C)(NC(=O)CC1(NC(=O)c2cc(-c3ccc(F)cc3F)on2)CN(C2(C)CCCCC2)C1)c1cccc(Cl)c1 [Example 1.360] | < 5 |
| COc1cccc(C(C)(C)NC(=O)CC2(NC(=O)c3cc(-c4ccc(F)cc4F)on3)CN([C@H]3CC[C@@](C)(O)CC3)C2)c1F [Example 1.195] | 5 to 100 |
| CC(C)(NC(=O)CC1(NC(=O)c2cc(-c3ccc(F)cc3F)no2)CN([C@H]2CC[C@@](C)(O)CC2)C1)c1cccc(Cl)c1 [Example 1.047] | 5 to 100 |
| CC(C)(NC(=O)CC1(NC(=O)c2cnc(-c3ccc(F)cc3F)s2)CN([C@H]2CC[C@@](C)(O)CC2)C1)c1cccc(Cl)c1 [Example 1.068] | 5 to 100 |
| Cc1ccnc(C(C)(C)NC(=O)CC2(NC(=O)c3cc(-c4ccc(F)cc4F)on3)CN([C@H]3CC[C@](C)(O)CC3)C2)c1 [Example 1.164] | < 5 |
| CC(C)(NC(=O)CC1(NC(=O)c2nnc(-c3ccc(F)cc3F)s2)CN([C@H]2CC[C@](C)(O)CC2)C1)c1ncccn1 [Example 1.033] | 5 to 100 |
| Cc1cc(C)nc(C(C)(C)NC(=O)CC2(NC(=O)c3cc(-c4ccc(F)cc4F)on3)CN(C3CCOCC3(C)C)C2)n1 (stereo not shown) [Example 1.351] | 100 to 1000 |
| CC(C)(NC(=O)CC1(NC(=O)c2cc(-c3ccc(F)cc3F)on2)CN(C2CCCCC2)C1)c1ccccc1 [Example 1.318] | < 5 |
| COc1ccc(C(C)(C)NC(=O)CC2(NC(=O)c3cc(-c4ccc(F)cc4F)on3)CN([C@H]3CC[C@](C)(O)CC3)C2)cc1 [Example 1.244] | 1000 to 20000 |
| CC(C)(NC(=O)CC1(NC(=O)c2nnc(-c3ccc(F)cc3F)s2)CN(C2CCCCC2)C1)c1cccc(Cl)c1 [Example 1.073] | < 5 |
| CC(C)(NC(=O)CC1(NC(=O)c2cc(-c3ccc(F)cc3F)on2)CN([C@H]2CC[C@@](C)(O)CC2)C1)c1ccnc(C#N)c1 [Example 1.161] | 5 to 100 |

| Structure (SMILES) | IC50 [nM] |
| --- | --- |
| CC(C)(NC(=O)CC1(NC(=O)c2cc(-c3ccc(F)cc3F)on2)CN(C2CCC3(CCC3)CC2)C1)c1ccccn1 [Example 1.296] | 100 to 1000 |
| Cn1nc(-c2ccc(F)cc2F)cc1C(=O)NC1(CC(=O)NC(C)(C)c2cccc(Cl)c2)CN([C@H]2CC[C@](C)(O)CC2)C1 [Example 1.059] | 1000 to 20000 |
| Cc1cc(Cl)cc(C(C)(C)NC(=O)CC2(NC(=O)c3cc(-c4ccc(F)cc4F)on3)CN(C3CCOC(C)(C)C3)C2)n1 (stereo not shown) [Example 1.358] | < 5 |
| CC(C)(NC(=O)CC1(NC(=O)c2cc(-c3ccc(F)cc3F)on2)CN([C@H]2CC[C@@](C)(O)CC2)C1)c1ccc(F)cc1F [Example 1.288] | 5 to 100 |
| O=C(CC1(NC(=O)c2cc(-c3ccc(F)cc3F)on2)CN(Cc2ccccc2)C1)NC1(c2ncccn2)CC1 [Example 1.329] | 100 to 1000 |
| Cc1cc(C(C)(C)NC(=O)CC2(NC(=O)c3cc(-c4ccc(F)cc4F)on3)CN(CC(C)C)C2)ccn1 [Example 1.122] | 5 to 100 |
| CC(C)CN1CC(CC(=O)NC(C)(C)c2cc(F)cc(F)c2)(NC(=O)c2cc(-c3ccc(F)cc3F)on2)C1 [Example 1.036] | 5 to 100 |
| Cc1ccnc(C(C)(C)NC(=O)CC2(NC(=O)c3nnc(-c4ccc(F)cc4F)s3)CN([C@H]3CC[C@](C)(O)CC3)C2)c1 [Example 1.338] | 5 to 100 |
| C[C@]1(O)CC[C@H](N2CC(CC(=O)NCc3ccccn3)(NC(=O)c3cc(-c4ccc(F)cc4F)on3)C2)CC1 [Example 1.099] | 1000 to 20000 |
| CC(C)(NC(=O)CC1(NC(=O)c2cc(-c3ccc(F)cc3F)on2)CN(C2CCC(O)CC2)C1)c1ccccn1 (stereo not shown) [Example 1.300] | 5 to 100 |
| Cc1cc(C)nc(C(C)(C)NC(=O)CC2(NC(=O)c3cc(-c4ccc(F)cc4F)on3)CN(CC3(C)COC3)C2)n1 [Example 1.131] | 1000 to 20000 |
| CC(C)(NC(=O)CC1(NC(=O)c2nnc(-c3ccc(F)cc3F)s2)CN(CC2CC2)C1)c1cccc(Cl)c1 [Example 1.038] | 5 to 100 |
| Cc1ccc(F)c(C(C)(C)NC(=O)CC2(NC(=O)c3cc(-c4ccc(F)cc4F)on3)CN([C@H]3CC[C@](C)(O)CC3)C2)c1 [Example 1.185] | < 5 |
| CC(C)(NC(=O)CC1(NC(=O)c2cn(-c3ccc(F)cc3F)cn2)CN(C2CCCCC2)C1)c1cccc(Cl)c1 [Example 1.023] | 1000 to 20000 |
| CC1(CN2CC(CC(=O)NC(C)(C)c3cccc(Cl)c3)(NC(=O)c3cc(-c4ccc(F)cc4F)on3)C2)COC1 [Example 1.216] | < 5 |
| CC(C)(NC(=O)CC1(NC(=O)c2cc(-c3ccc(F)cc3F)on2)CN([C@H]2CC[C@](C)(O)CC2)C1)c1ccncc1 [Example 1.182] | < 5 |
| O=C(CC1(NC(=O)c2cc(-c3ccc(F)cc3F)on2)CN(CC2CC2)C1)NC1(c2ccccc2)CC1 [Example 1.321] | 100 to 1000 |
| CC(C)(NC(=O)CC1(NC(=O)c2cc(-c3ccc(F)cc3F)on2)CN(C2CCC3(CC2)COC3)C1)c1ccc(F)cc1F [Example 1.254] | 100 to 1000 |
| CC(C)(NC(=O)CC1(NC(=O)c2cc(-c3ccc(F)cc3F)on2)CN([C@H]2CC[C@](C)(O)CC2)C1)c1ccnc(C2CC2)c1 [Example 1.147] | 5 to 100 |
| CC(C)(NC(=O)CC1(NC(=O)c2cc(-c3ccc(F)cc3F)on2)CN([C@H]2CC[C@](C)(O)CC2)C1)c1cnccn1 [Example 1.158] | 5 to 100 |

| Structure (SMILES) | IC50 [nM] |
| --- | --- |
| CC(C)(NC(=O)CC1(NC(=O)c2cc(-c3ccc(F)cc3F)on2)CN([C@H]2CC[C@](C)(O)CC2)C1)c1c[nH]c2ncccc12 [Example 1.097] | 5 to 100 |
| CC(CN1CC(CC(=O)NC(C)(C)c2ccccn2)(NC(=O)c2cc(-c3ccc(F)cc3F)on2)C1)C(F)(F)F (stereo not shown) [Example 1.018] | 100 to 1000 |
| CC(C)(NC(=O)CC1(NC(=O)c2nnc(-c3ccc(F)cc3F)s2)CN([C@H]2CC[C@](C)(O)CC2)C1)c1cc(Cl)cc(Cl)c1 [Example 1.007] | < 5 |
| Cc1ccnc(C(C)(C)NC(=O)CC2(NC(=O)c3cc(-c4ccc(F)cc4F)on3)CN([C@H]3CC[C@@](C)(O)CC3)C2)c1 [Example 1.163] | < 5 |
| Cc1cc(C)nc(C(C)(C)NC(=O)CC2(NC(=O)c3nnc(-c4ccc(F)cc4F)s3)CN([C@H]3CC[C@@](C)(O)CC3)C2)n1 [Example 1.060] | 5 to 100 |
| CC(C)(NC(=O)CC1(NC(=O)c2cc(-c3ccc(F)cc3F)n[nH]2)CN([C@H]2CC[C@@](C)(O)CC2)C1)c1cccc(Cl)c1 [Example 1.053] | 1000 to 20000 |
| CC(C)(NC(=O)CC1(NC(=O)c2cc(-c3ccc(F)cc3F)on2)CN([C@H]2CC[C@@](C)(O)CC2)C1)c1cccc(C2CC2)c1 [Example 1.143] | 5 to 100 |
| Cc1cc(C)nc(C(C)(C)NC(=O)CC2(NC(=O)c3cc(-c4ccc(F)cc4F)on3)CN(C3CC(C)(C)OC(C)(C)C3)C2)n1 [Example 1.355] | < 5 |
| CC(C)(NC(=O)CC1(NC(=O)c2cc(-c3ccc(F)cc3F)on2)CN([C@H]2CC[C@](C)(O)CC2)C1)c1cc(F)ccc1F [Example 1.236] | < 5 |
| Cn1ccc2c(C(C)(C)NC(=O)CC3(NC(=O)c4cc(-c5ccc(F)cc5F)on4)CN([C@H]4CC[C@@](C)(O)CC4)C3)cccc21 [Example 1.125] | 5 to 100 |
| Cc1cc(C(C)C)cc(C(C)(C)NC(=O)CC2(NC(=O)c3nnc(-c4ccc(F)cc4F)s3)CN([C@H]3CC[C@](C)(O)CC3)C2)n1 [Example 1.347] | 100 to 1000 |
| COc1ccnc(C(C)(C)NC(=O)CC2(NC(=O)c3cc(-c4ccc(F)cc4F)on3)CN([C@H]3CC[C@@](C)(O)CC3)C2)c1 [Example 1.200] | 5 to 100 |
| CC(C)(NC(=O)CC1(NC(=O)c2cc(-c3ccc(F)cc3F)on2)CN(CC2CCC2)C1)c1ccccn1 [Example 1.020] | 5 to 100 |
| O=C(CC1(NC(=O)c2cc(-c3ccc(F)cc3F)on2)CN(C2CCCCC2)C1)NC1(c2ccccc2)CC1 [Example 1.325] | 5 to 100 |
| CC[C@H](NC(=O)CC1(NC(=O)c2cc(-c3ccc(F)cc3F)on2)CN(C2CCCCC2)C1)c1ccccc1 [Example 1.304] | 5 to 100 |
| CC(C)(NC(=O)CC1(NC(=O)c2cc(-c3ccc(F)cc3F)on2)CN([C@H]2CC[C@@](C)(O)CC2)C1)c1cc(F)cc(Cl)c1 [Example 1.123] | < 5 |
| CC(C)(NC(=O)CC1(NC(=O)c2cc(-c3ccc(F)cc3F)on2)CN([C@H]2CC[C@](C)(O)CC2)C1)c1cc(Cl)ccc1F [Example 1.133] | < 5 |
| Cc1cc(C)nc(C(C)(C)NC(=O)CC2(NC(=O)c3cc(-c4ccc(F)cc4F)on3)CN(C3CC(C)OC(C)C3)C2)n1 (stereo not shown) [Example 1.354] | 100 to 1000 |
